From ChEMBL document CHEMBL3885881, “DrugMatrix”

Species: Rattus norvegicus
Test: DrugMatrix - Regimen: Daily Repeat
Assay type: toxicity, organism-based, Sprague-Dawley
Parameters: regimen Daily Repeat, gender Male, age 6-8 weeks
Conditions: in vivo, po, route oral GAVAGE, […]; for ABSOLUTE BASOPHIL / ABSOLUTE EOSINOPHIL / ABSOLUTE LYMPHOCYTE / ABSOLUTE MONOCYTE / ABSOLUTE SEGMENTED NEUTROPHIL / BASOPHIL / EOSINOPHIL / ERYTHROCYTE COUNT / HEMATOCRIT / HEMOGLOBIN / LEUKOCYTE COUNT / LYMPHOCYTE / MEAN CORPUSCULAR HEMOGLOBIN / MEAN CORPUSCULAR VOLUME / MONOCYTE / NEUTROPHIL / NUCLEATED RED BLOOD CELLS / PLATELET COUNT: tissue Blood; for ALANINE AMINOTRANSFERASE / ALBUMIN / ALKALINE PHOSPHATASE / ASPARTATE AMINOTRANSFERASE / BLOOD UREA NITROGEN / CARBON DIOXIDE / CHLORIDE / CHOLESTEROL / CREATINE PHOSPHOKINASE / CREATININE / GLUCOSE / LACTATE DEHYDROGENASE / LIPASE / PHOSPHORUS / POTASSIUM / SODIUM / TOTAL BILIRUBIN / TOTAL PROTEIN / URIC ACID: tissue Plasma
[1] = 70 mg/kg, 120 h, dose level M1, time 5 day
[2] = 700 mg/kg, 72 h, dose level High, time 3 day
[3] = 700 mg/kg, 120 h, dose level High, time 5 day

CCCCCCCCc1ccc(O)cc1 [4-OCTYLPHENOL]
ABSOLUTE BASOPHIL [1]: 0 CELLS/uL | ABSOLUTE EOSINOPHIL [1]: 194 CELLS/uL | ABSOLUTE LYMPHOCYTE [1]: 9540.33 CELLS/uL | ABSOLUTE MONOCYTE [1]: 80.33 CELLS/uL | ABSOLUTE SEGMENTED NEUTROPHIL [1]: 918.67 CELLS/uL | BASOPHIL [1]: 0% | EOSINOPHIL [1]: 1.67% | ERYTHROCYTE COUNT [1]: 5.98 x10E6/uL | HEMATOCRIT [1]: 36.37% | HEMOGLOBIN [1]: 13.77 G/DL | LEUKOCYTE COUNT [1]: 10.73 x10E3/uL | LYMPHOCYTE [1]: 88.67% | MEAN CORPUSCULAR HEMOGLOBIN [1]: 23.03 pg | MEAN CORPUSCULAR VOLUME [1]: 60.9 fL | MONOCYTE [1]: 0.67% | NEUTROPHIL [1]: 9% | NUCLEATED RED BLOOD CELLS [1]: 0.33 /100WBC | PLATELET COUNT [1]: 1062 x10E3/uL | ALANINE AMINOTRANSFERASE [1]: 72 u/L | ALBUMIN [1]: 4.1 G/DL | ALKALINE PHOSPHATASE [1]: 380.67 u/L | ASPARTATE AMINOTRANSFERASE [1]: 88.67 u/L | BLOOD UREA NITROGEN [1]: 16.67 mg/dL | CARBON DIOXIDE [1]: 27 mmol/L | CHLORIDE [1]: 102.33 MEQ/L | CHOLESTEROL [1]: 57.67 mg/dL | CREATINE PHOSPHOKINASE [1]: 355.33 u/L | CREATININE [1]: 0.18 mg/dL | GLUCOSE [1]: 157.33 mg/dL | LACTATE DEHYDROGENASE [1]: 260.67 u/L | LIPASE [1]: 11.67 u/L | PHOSPHORUS [1]: 11.13 mg/dL | POTASSIUM [1]: 5.91 MEQ/L | SODIUM [1]: 142.87 MEQ/L | TOTAL BILIRUBIN [1]: 0.17 mg/dL | TOTAL PROTEIN [1]: 5.87 G/DL | URIC ACID [1]: 1.6 mg/dL | ABSOLUTE BASOPHIL [2]: 0 CELLS/uL | ABSOLUTE EOSINOPHIL [2]: 0 CELLS/uL | ABSOLUTE LYMPHOCYTE [2]: 8011 CELLS/uL | ABSOLUTE MONOCYTE [2]: 200 CELLS/uL | ABSOLUTE SEGMENTED NEUTROPHIL [2]: 2522.33 CELLS/uL | BASOPHIL [2]: 0% | EOSINOPHIL [2]: 0% | ERYTHROCYTE COUNT [2]: 6.31 x10E6/uL | HEMATOCRIT [2]: 38.63% | HEMOGLOBIN [2]: 14.83 G/DL | LEUKOCYTE COUNT [2]: 10.73 x10E3/uL | LYMPHOCYTE [2]: 73.33% | MEAN CORPUSCULAR HEMOGLOBIN [2]: 23.5 pg | MEAN CORPUSCULAR VOLUME [2]: 61.27 fL | MONOCYTE [2]: 2% | NEUTROPHIL [2]: 24.67% | NUCLEATED RED BLOOD CELLS [2]: 0.67 /100WBC | PLATELET COUNT [2]: 1294.33 x10E3/uL | ALANINE AMINOTRANSFERASE [2]: 165.67 u/L | ALBUMIN [2]: 3.93 G/DL | ALKALINE PHOSPHATASE [2]: 493 u/L | ASPARTATE AMINOTRANSFERASE [2]: 140.33 u/L | BLOOD UREA NITROGEN [2]: 33.33 mg/dL | CARBON DIOXIDE [2]: 26.67 mmol/L | CHLORIDE [2]: 97.67 MEQ/L | CHOLESTEROL [2]: 169.67 mg/dL | CREATINE PHOSPHOKINASE [2]: 748 u/L | CREATININE [2]: 0.58 mg/dL | GLUCOSE [2]: 147.33 mg/dL | LACTATE DEHYDROGENASE [2]: 302.33 u/L | LIPASE [2]: 10.33 u/L | PHOSPHORUS [2]: 12.5 mg/dL | POTASSIUM [2]: 5.29 MEQ/L | SODIUM [2]: 140.03 MEQ/L | TOTAL BILIRUBIN [2]: 0.9 mg/dL | TOTAL PROTEIN [2]: 6.17 G/DL | URIC ACID [2]: 1.03 mg/dL | ABSOLUTE BASOPHIL [3]: 0 CELLS/uL | ABSOLUTE EOSINOPHIL [3]: 0 CELLS/uL | ABSOLUTE LYMPHOCYTE [3]: 7185 CELLS/uL | ABSOLUTE MONOCYTE [3]: 222.33 CELLS/uL | ABSOLUTE SEGMENTED NEUTROPHIL [3]: 759.33 CELLS/uL | BASOPHIL [3]: 0% | EOSINOPHIL [3]: 0% | ERYTHROCYTE COUNT [3]: 7.06 x10E6/uL | HEMATOCRIT [3]: 42.33% | HEMOGLOBIN [3]: 15.83 G/DL | LEUKOCYTE COUNT [3]: 8.17 x10E3/uL | LYMPHOCYTE [3]: 85% | MEAN CORPUSCULAR HEMOGLOBIN [3]: 22.53 pg | MEAN CORPUSCULAR VOLUME [3]: 60.13 fL | MONOCYTE [3]: 3.33% | NEUTROPHIL [3]: 11.67% | NUCLEATED RED BLOOD CELLS [3]: 0 /100WBC | PLATELET COUNT [3]: 1069.33 x10E3/uL | ALANINE AMINOTRANSFERASE [3]: 175.67 u/L | ALBUMIN [3]: 4.03 G/DL | ALKALINE PHOSPHATASE [3]: 554.67 u/L | ASPARTATE AMINOTRANSFERASE [3]: 104 u/L | BLOOD UREA NITROGEN [3]: 17 mg/dL | CARBON DIOXIDE [3]: 27.67 mmol/L | CHLORIDE [3]: 100 MEQ/L | CHOLESTEROL [3]: 150.33 mg/dL | CREATINE PHOSPHOKINASE [3]: 369 u/L | CREATININE [3]: 0.37 mg/dL | GLUCOSE [3]: 133 mg/dL | LACTATE DEHYDROGENASE [3]: 179.33 u/L | LIPASE [3]: 10.67 u/L | PHOSPHORUS [3]: 11.13 mg/dL | POTASSIUM [3]: 6.27 MEQ/L | SODIUM [3]: 143.2 MEQ/L | TOTAL BILIRUBIN [3]: 0.3 mg/dL | TOTAL PROTEIN [3]: 6.37 G/DL | URIC ACID [3]: 1.23 mg/dL
